Experimental data published in US20030235916A1, “Novel methods for the delivery of polynucleotides to cells” (priority 2002, published 2003).
d = 2'-deoxy (DNA); r = 2'-OH (RNA)

Key:
[1] = system: rhodamine labeled PCILuc DNA (pDNA); assay: Rhodamine labeled DNA condensation with cationic surfactants (fluorescence quenching), Example 19; type: physicochemical
Protocol: (§1) PCILuc DNA (pDNA) [Zhang et al. 1997] was modified to a level of 1 rhodamine per 100 bases using Mirus' Label IT® Rhodamine kit (Rhodamine Containing DNA Labeling Reagent, Mirus Corporation). The modified pDNA (10 μg) was mixed with pDNA that was not labeled (90 μg) in water and diluted to a final concentration of 1 μg/μL with water. The modified pDNA/pDNA mixture (5 μg) was diluted with water to a final volume of 500 μL. Different amounts of CTAB were added to the solution and the fluorescence intensity of the solution was measured using a Cary Eclipse Fluorescence Spectrophotometer (ex=555, em=585, Varian, Inc.). Trubetskoy et al have shown that rhodamine labeled pDNA undergoes fluorescence quenching as the pDNA is condensed [Trubetskoy, 1999].
as §1, with “It®” for “IT®”, “dodecylamine hydrochloride” for “CTAB”

[2] = system: luciferase expression (pCI Luc / pCI Ren) in liver of ICR mice; assay: HP tail vein dual luciferase: siRNA delivery (Example 77); type: in vivo; conditions: hydrophobic siRNA
Protocol: HP Tail Vein Dual Luciferase: siRNA delivery Five complexes were prepared as follows:
Tail vein injections of 1.0 mL per 10 g body weight (˜2.5 ml) were preformed on ICR mice (n=2) using a 30 gauge, 0.5 inch needle. Injections were done manually with injection times of 4-5 sec [Zhang et al. 1999; Liu et al. 1999]. One day after injection, the livers were harvested and homogenized in lysis buffer (0.1% Triton X-100, 0.1 M K-phosphate, 1 mM DTT, pH 7.8). Insoluble material was cleared by centrifugation and 10 μl of the cellular extract or extract diluted 10× was analyzed for luciferase activity as previously reported [Wolffetal 1990].

## CCCCCCCCCCCCCCCC[N+](C)(C)C.[Br-] [CTAB, cetyltrimethylammonium bromide, reference compound]
[1]; 5 μg rhodamine pDNA mixture in 500 μL water
  surfactant concentration at which the pDNA is condensed: 0.33 mM
[1]; N/P 0.4, 2 μg CTAB, 0.011 mM CTAB, 5 μg pDNA in 500 μL water, ex=555, em=585
  Fluor Int: 201.540
[1]; N/P 0.7, 4 μg CTAB, 0.022 mM CTAB
  Fluor Int: 159.277
[1]; N/P 1.1, 6 μg CTAB, 0.033 mM CTAB
  Fluor Int: 85.253
[1]; N/P 1.4, 8 μg CTAB, 0.044 mM CTAB
  Fluor Int: 81.625
[1]; N/P 1.8, 10 μg CTAB, 0.055 mM CTAB
  Fluor Int: 78.471
[1]; N/P 2.2, 12 μg CTAB, 0.066 mM CTAB
  Fluor Int: 74.722
[1]; N/P 2.5, 14 μg CTAB, 0.077 mM CTAB
  Fluor Int: 67.267
[1]; N/P 2.9, 16 μg CTAB, 0.088 mM CTAB
  Fluor Int: 62.799

## CCCCCCCCCCCCN.Cl [NC12, dodecylamine hydrochloride]
[1]; N/P 0.6, 2 μg NC12, 0.018 mM NC12, 5 μg pDNA in 500 μL water, ex=555, em=585
  Fluor Int: 183.656
[1]; N/P 1.2, 4 μg NC12, 0.036 mM NC12
  Fluor Int: 106.095
[1]; N/P 1.8, 6 μg NC12, 0.054 mM NC12
  Fluor Int: 95.586
[1]; N/P 2.4, 8 μg NC12, 0.072 mM NC12
  Fluor Int: 86.119
[1]; N/P 3.0, 10 μg NC12, 0.090 mM NC12
  Fluor Int: 77.670
[1]; N/P 3.6, 12 μg NC12, 0.108 mM NC12
  Fluor Int: 68.208
[1]; N/P 4.2, 14 μg NC12, 0.126 mM NC12
  Fluor Int: 62.115
[1]; N/P 4.8, 16 μg NC12, 0.144 mM NC12
  Fluor Int: 60.158
[1]; N/P 5.4, 18 μg NC12, 0.162 mM NC12
  Fluor Int: 53.467
[1]; N/P 6.0, 20 μg NC12, 0.180 mM NC12
  Fluor Int: 46.790
[1]; N/P 6.5, 22 μg NC12, 0.198 mM NC12
  Fluor Int: 43.375
[1]; N/P 7.1, 24 μg NC12, 0.216 mM NC12
  Fluor Int: 45.000

## GL3-153: siRNA duplex, SEQ ID 12 and its compliment SEQ ID 13, Dharmacon (sense CUUACGCUGAGUACUUCGATT; antisense UCGAAGUACUCAGCGUAAGTT; sugars from the 5' end r19 d2, backbone not given here; listed as Photinus pyralis)
[2]
  inhibition of luciferase expression: inhibits luciferase expression
